The values below come from US5712417A, “Inhibitors of retroviral proteases” (Abbott Laboratories, priority 1989, dated 1998).

Each structure is given as a SMILES string. Counter-ions that a name gives are not always drawn. Where a SMILES comes first, the peptide text is derived from it. [ ]: non-standard residue; d: D form. The star is where a group is joined. Sta = CC(C)C[C@H](N)[C@@H](O)CC(=O)O; Isovaleryl = CC(C)CC(=O)*

The target of the first data set is T1, HIV protease (Human immunodeficiency virus type 1 group M subtype B, UniProt P04585).
T1 construct: HIV protease consists of 99 amino acids and is evidently split off by itself from the pol polyprotein
The data set is described as follows: Inhibition of HIV protease (cleavage of H-Ser-Phe-Asn-Phe-Opr-Gln-Ile-OH, HPLC). To be noted: inhibitor concentration at which the cleavage rate is halved; pH 6, 2 hours; read-out: IC50. In kind it is biochemical. The method, boiled down: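 Substrate H-Ser-Phe-Asn-Phe-Opr-Gln-Ile-OH in MGTE buffer (MES, glycerol, Triton X-100, PMSF, pH 6) preincubated with inhibitor at 37 °C for 5-10 min, then reacted with protease at 35 °C for 2 h. RP18 HPLC at 215 nm; tetrapeptide fraction gives cleavage rate, IC50 where rate is halved.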
As for `CC(C)[C@H](NC(=O)C(Cc1ccccc1)CS(=O)(=O)Cc1ccc(Cl)cc1)C(=O)N[C@@H](Cc1ccccc1)[C@@H](O)[C@H](O)[C@H](Cc1ccccc1)NC(=O)[C@@H](NC(=O)C(Cc1ccccc1)CS(=O)(=O)Cc1ccc(Cl)cc1)C(C)C` (stereo partly drawn) [Example 123, N,N'-bis-<(2-(p-Chlorobenzylsulfonylmethyl)-3-phenyl-propionyl)-L-valyl>-2S,5S-diamino-1,6-diphenylhexane-3R,4R-diol], the IC50 (commonly the concentration that gives 50% inhibition) came to 32 nM.

Turning to `Cc1ccc(S(=O)(=O)N[C@@H](Cc2ccc3ccccc3c2)C(=O)N[C@H](C(=O)N[C@@H](Cc2ccccc2)[C@@H](O)[C@H](O)[C@H](Cc2ccccc2)NC(=O)[C@@H](NC(=O)[C@H](Cc2ccc3ccccc3c2)NS(=O)(=O)c2ccc(C)cc2)C(C)C)C(C)C)cc1` [Example 124, N,N'-bis-<N-Tosyl-β-naphthylalanyl-L-valyl>-2S, 5S-diamino-1,6-diphenylhexane-3R, 4R-diol], the IC50 turned out to be 11 nM.

Take `CC(C)[C@H](NC(=O)[C@H](Cc1ccc2ccccc2c1)NS(C)(=O)=O)C(=O)N[C@@H](Cc1ccccc1)[C@@H](O)[C@H](O)[C@H](Cc1ccccc1)NC(=O)[C@@H](NC(=O)[C@H](Cc1ccc2ccccc2c1)NS(C)(=O)=O)C(C)C` [Example 125, N,N,-bis-<N-Mesyl-β-naphthylalanyl-L-valyl>-2S,5S-diamino-1,6-diphenylhexane-3R,4R-diol]: the IC50 was 0.75 nM. On the same count and under the same terms, in the case of `CC(C)[C@H](NC(=O)OC(C)(C)C)C(=O)N[C@H](Cc1ccccc1)[C@@H](O)[C@H](O)[C@@H](Cc1ccccc1)NC(=O)[C@@H](NC(=O)OC(C)(C)C)C(C)C` [Example 127, N,N'-bis-<tert.-Butoxycarbonyl-L-valyl>-2R,5R-diamino-1,6-diphenylhexane-3R,4R-diol] it was 46 nM. On the same count and under the same terms, in the case of `CC(C)[C@H](N)C(=O)N[C@@H](Cc1ccccc1)[C@H](O)[C@@H](O)[C@H](Cc1ccccc1)NC(=O)[C@@H](N)C(C)C` [Example 131, N,N'-bis-<L-Valyl>-2S,5S-diamino-1,6-diphenylhexane-3S,4S-diol dihydrochloride] it was 40000 nM. Still for that read-out and setting: in the case of `N[C@@H](CCCCNC(=O)OCc1ccccc1)C(=O)N[C@@H](Cc1ccccc1)[C@@H](O)[C@H](O)[C@H](Cc1ccccc1)NC(=O)[C@@H](N)CCCCNC(=O)OCc1ccccc1` [Example 132, N,N'-bis-<N^6 -Benzoxycarbonyl-L-lysyl>-2S,5S-diamino-1,6-diphenylhexane-3R,4R-diol dihydrochloride] it was 20000 nM.

As to `CC(C)[C@H](NC(=O)[C@@H](N)Cc1ccccc1)C(=O)NCCCCNC(=O)[C@@H](NC(=O)[C@@H](N)Cc1ccccc1)C(C)C` [Example 145, N,N'-bis-<L-Phenylalanyl-L-valyl>-1.4-diaminobutane dihydrochloride], the IC50 was 95 nM. Regarding `CC(C)[C@H](NC(=O)[C@H](Cc1cccc2ccccc12)CS(=O)(=O)C(C)(C)C)C(=O)NCCCCNC(=O)[C@@H](NC(=O)[C@H](Cc1cccc2ccccc12)CS(=O)(=O)C(C)(C)C)C(C)C` [Example 146, N,N'-bis-<(2S-(1,1-Dimethylethylsulfonylmethyl)-3-(1-naphthyl)-propionyl)-L-valyl>-1,4-diaminobutane], the IC50 is 100 nM. Same read-out and setting: in the case of `CC(C)[C@H](NC(=O)[C@@H](N)Cc1ccccc1)C(=O)N[C@@H](CCc1ccccc1)[C@@H](O)[C@H](O)[C@H](CCc1ccccc1)NC(=O)[C@@H](NC(=O)[C@@H](N)Cc1ccccc1)C(C)C` [Example 148, N,N'-bis-(L-Phenylalanyl-L-valyl)-3S,6S-diamino-1,8-diphenyloctane-4R,5R-diol dihydrochloride] it was 36 nM; in that of `CCCCC[C@H](NC(=O)[C@@H](NC(=O)[C@H](Cc1ccccc1)NC(=O)OC(C)(C)C)C(C)C)[C@@H](O)[C@H](O)[C@H](CCCCC)NC(=O)[C@@H](NC(=O)[C@H](Cc1ccccc1)NC(=O)OC(C)(C)C)C(C)C` [Example 150, N,N'-bis-(tert.-Butoxycarbonyl-L-phenylalanyl-L-valyl)-6S,9S-diaminotetradecane-7R, 8R-diol], 95 nM; in that of `CCCCC[C@H](NC(=O)[C@@H](NC(=O)[C@@H](N)Cc1ccccc1)C(C)C)[C@@H](O)[C@H](O)[C@H](CCCCC)NC(=O)[C@@H](NC(=O)[C@@H](N)Cc1ccccc1)C(C)C` [Example 151, N,N'-bis-(L-Phenylalanyl-L-valyl )-6S, 9S-diamino-tetradecane-7R, 8R-diol dihydrochloride], 4 nM. Same read-out and setting: in the case of `CC(C)[C@H](NC(=O)[C@@H](N)Cc1ccccc1)C(=O)N[C@@H](Cc1ccc2c(c1)OCO2)[C@@H](O)[C@H](O)[C@H](Cc1ccc2c(c1)OCO2)NC(=O)[C@@H](NC(=O)[C@@H](N)Cc1ccccc1)C(C)C` [Example 154, N,N'-bis-(L-Phenylalanyl-L-valyl)-2S,5S-diamino-1,6-bis-(3,4-methylenedioxyphenyl)-hexane-3R,4R-diol dihydro-chloride] it was 1 nM; in that of `CC(C)[C@H](NC(=O)[C@H](Cc1cccc2ccccc12)CS(=O)(=O)C(C)(C)C)C(=O)N[C@@H](Cc1ccc2c(c1)OCO2)[C@@H](O)[C@H](O)[C@H](Cc1ccc2c(c1)OCO2)NC(=O)[C@@H](NC(=O)[C@H](Cc1cccc2ccccc12)CS(=O)(=O)C(C)(C)C)C(C)C` [Example 155], 10 nM. The same measure, in the same setting: in the case of `CC[C@H](C)[C@H](NC(=O)[C@H](Cc1cccc2ccccc12)CS(=O)(=O)C(C)(C)C)C(=O)N[C@@H](Cc1ccccc1)[C@@H](O)[C@H](O)[C@H](Cc1ccccc1)NC(=O)[C@@H](NC(=O)[C@H](Cc1cccc2ccccc12)CS(=O)(=O)C(C)(C)C)[C@@H](C)CC` [Example 156, N,N'-bis-(<2S-(1,1-Dimethylethylsulfonylmethyl)-3-(1-naphthyl)-propionyl>-L-isoleucyl)-2S,5S-diamino-1,6-diphenylhexane-3R,4R-diol] it was 30 nM.

A further data set concerns core protein p24.
Test: not given
To be noted: high doses; cited from earlier work.
On to `CC(C)CC(=O)N[C@H](C(=O)N[C@H](C(=O)N[C@@H](CC(C)C)[C@@H](O)CC(=O)N[C@@H](C)C(=O)N[C@@H](CC(C)C)[C@@H](O)CC(=O)O)C(C)C)C(C)C` [Pepstatin A] (Isovaleryl-VV[Sta]A[Sta]-OH), for which the “reducing the formation of the core protein p24” value is “capable of reducing the formation of the core protein p24”.

Another data set has as its system HIV protease.
Test: not given
To be noted: literature (Katoh et al., Nature 1987); cited from earlier work.
`CC(C)CC(=O)N[C@H](C(=O)N[C@H](C(=O)N[C@@H](CC(C)C)[C@@H](O)CC(=O)N[C@@H](C)C(=O)N[C@@H](CC(C)C)[C@@H](O)CC(=O)O)C(C)C)C(C)C` [Pepstatin A] (Isovaleryl-VV[Sta]A[Sta]-OH): the IC50 is […].

Tested on in a further data set: not given
Test: not given
The note with it: in many cases require discontinuation of the therapy; cited from earlier work.
With `Cc1cn([C@H]2C[C@H](N=[N+]=[N-])[C@@H](CO)O2)c(=O)[nH]c1=O` [Zidovudine (AZT)], the toxic side effects result was “serious toxic side effects”.

For another data set, the system named is HIV.
Test: not given
To be noted: first strains of HIV; cited from earlier work.
On to `Cc1cn([C@H]2C[C@H](N=[N+]=[N-])[C@@H](CO)O2)c(=O)[nH]c1=O` [Zidovudine (AZT)], for which the “sensitivity of HIV strains toward AZT” value is “significantly lower sensitivity”.
